Experimental data from patent publication US11932633B2, “KRas G12C inhibitors” (Mirati Therapeutics, Inc., priority 2018, dated 2024).

Columns and labels:
KRas G12C [1] = molecular target: T1, KRas G12C (Homo sapiens, UniProt P01116, G12C); experiment: Cellular inhibition of KRas G12C measured by Phospho-ERK in NCI-11358 cells; assay type: cell-based; conditions: NCI-11358 cells (ATCC CRL-5807), 3 hours; read-out: Inhibition (IC50, pERK (Thr202/Tyr204) signal normalized with GAPDH)
T1 construct: NCI-11358 cells (ATCC CRL-5807) express KRas G12C; host or cells: NCI-H358
Description: The cellular inhibition of KRAs G12C by exemplary compounds of the present invention was determined by measuring the amount of a downstream marker of KRas activity, phosphorylated ERK (“Phospho-ERK”).
NCI-11358 cells (ATCC CRL-5807) express KRas G12C and were grown in RPMI medium supplemented with 10% fetal bovine serum, penicillin/streptomycin and 10 mM HEPES. Cells were plated in poly-D-Lysine coated 96-well plates at a concentration of 50,000 cells/well and allowed to attach for 8-12 hours. Diluted compounds were then added at a final concentration of 0.5% DMSO. After 3 hours, the medium was removed, 150 μL of 4% formaldehyde was added and the plates were incubated for 20 minutes. The plates were washed with PBS, and permeabilized using 150 μL of ice cold 100% methanol for 10 minutes. Non-specific antibody binding to the plates was blocked using 100 μL Licor Blocking Buffer (Li-Cor Biotechnology, Lincoln NE) for 1 hour at room temperature. Positive control samples and samples lacking cells were parallel processed with test samples as standards.
The amount Phospho-ERK was determined using an antibody specific for the phosphorylated form of ERK and compared to the amount of GAPDH. Primary antibodies used for detection were added as follows: Phospho-ERK (Cell Signaling cs9101) diluted 1:500 and GAPDH (Millipore MAB374) diluted 1:5000 in Licor block+0.05% Tween 20. The plates were incubated for 2 hours at room temperature. The plates were washed with PBS+0.05% Tween 20.
Secondary antibodies used to visualize primary antibodies were added as follows: Anti-rabbit-680 diluted 1:1000 and Anti-mouse-800 diluted 1:1000 in Licor Block+0.05% Tween 20 and incubated for 1 hour at room temperature. The plates were washed with PBS+0.05% Tween 20. A 100 μL aliquot of PBS was added to each well and the plates were read on a LICOR AERIUS plate reader.
The pERK (Thr202/Tyr204) signal was normalized with the GAPDH signal and percent of DMSO control values were calculated. IC50 values were generated using a 4 parameter fit of the dose response curve. Key: “A”: ≤1 μM, “B”>1 μM and N.D.=not determined.

KRas G12C [2] = molecular target: T2, KRas G12C (Homo sapiens, UniProt P01116, C118S/C51S/C80L/G12C); experiment: KRas G12C Modification Assay (LCMS detection of covalent adduct); assay type: binding; conditions: 5 μM concentration for 3 hours
T2 construct: GDP-loaded K-Ras (1-169) G12C, C51S, C80L, C118S
Description: This Example illustrates that exemplary compounds of the present invention covalently bind to KRas G12C using a LCMS assay to detect a covalent adduct of the exemplary compound and KRAS G12C.
The protein concentration of GDP-loaded K-Ras (1-169) G12C, C51S, C80L, C118S and GTP-loaded K-Ras (1-169) G12C, C51S, C80L, C118S, Q61H was adjusted to 2 μM in K-Ras Assay Buffer (25 mM HEPES, 150 mM NaCl, 5 mM MgCl2, and 10 mM Octyl β-glucopyranoside at pH 7.5). A 10 μL aliquot of each protein solution was transferred to a 384 well microtiter plate. Initial compound stocks were generated at fifty times their desired final assay concentration in DMSO.
Exemplary compounds of formula (I) were diluted 25-fold into K-Ras Assay Buffer to a final of two times their final concentration. A 10 μL aliquot of each diluted compound solution was added to each of the protein solutions in the microtiter plate to initiate reaction. Typical final compound concentrations were 3.0, 5.0 and 25.0 μM. At each time point, the reactions were quenched with 20 μL of a 25 mM acetic acid solution. Usual assay endpoints were 15, 180 and 1440 minutes. Once all reactions were quenched, the plates were heat sealed and the samples were injected into a LC/MS system for data acquisition.
Data collection took place on an Agilent 6520 Q-TOF Accurate Mass Spectrometer. Samples were injected in their liquid phase onto a C-3 reverse phase column to remove assay buffer and prepare the samples for mass spectrometer. The proteins were eluted from the column using an acetonitrile gradient and fed directly into the mass analyzer. Initial raw data analysis took place in Agilent MassHunter software immediately post data acquisition.
Raw data analysis of the intact protein was exclusively a deconvolution of the multiple charge states of each protein in solution using a maximum entropy deconvolution provided in Mass Hunter. To minimize complexity, only the data over limited mass ranges were considered for analysis, with a minimum of one Dalton mass step intervals. The heights of all masses identified during raw data analysis were exported to be further analyzed in Spotfire® data analysis software.
Final data analysis was a multistep process in the Spotfire® data analysis software package. Briefly, each protein mass was calculated as a percent of the total signal of that sample, that percentage was normalized to the percentage of signal of the protein in the absence of reactive compounds. Those normalized signals were reported as normalized percent of control (POC). […] Key: N.D. is not determined.

Row | SMILES | IC50 (KRas G12C [1]) [nM] | POC (normalized percent of control, covalent modification of KRas G12C) (KRas G12C [2])
1 | C=CC(=O)N1CC(CN2C(=O)C(CC3CCN(C)CC3)Oc3cc(-c4cc(O)cc5ccccc45)c(Cl)cc32)C1 (centres unmarked) [Example 20, 4-((1-acryloylazetidin-3-yl)methyl)-6-chloro-7-(3-hydroxynaphthalen-1-yl)-2-((1-methylpiperidin-4-yl)methyl)-2H-benzo[b][1,4]oxazin-3(4H)-one] | ≤ 1000 | 99% of control
2 | C=CC(=O)N1CC(CN2C(=O)C(CCCN3CCCC3)Oc3cc(-c4cc(O)cc5ccccc45)c(Cl)cc32)C1 (centres unmarked) [Example 22, 4-((1-acryloylazetidin-3-yl)methyl)-6-chloro-7-(3-hydroxynaphthalen-1-yl)-2-(3-(pyrrolidin-1-yl)propyl)-2H-benzo[b][1,4]oxazin-3(4H)-one 2,2,2-trifluoroacetate] | ≤ 1000 | 97% of control
3 | C=CC(=O)N1CC(CN2C(=O)C(CN3CCCC3)Oc3cc(-c4cccc5ccccc45)c(Cl)cc32)C1 (centres unmarked) [Example 24, 4-((1-acryloylazetidin-3-yl)methyl)-6-chloro-7-(naphthalen-1-yl)-2-(pyrrolidin-1-ylmethyl)-2H-benzo[b][1,4]oxazin-3(4H)-one 2,2,2-trifluoroacetate] | > 1000 | 86% of control
4 | C=CC(=O)N1CC(CN2C(=O)C(CCCN3CCOCC3)Oc3cc(-c4cc(O)cc5ccccc45)c(Cl)cc32)C1 (centres unmarked) [Example 25, 4-((1-acryloylazetidin-3-yl)methyl)-6-chloro-7-(3-hydroxynaphthalen-1-yl)-2-(3-morpholinopropyl)-2H-benzo[b][1,4]oxazin-3(4H)-one 2,2,2-trifluoroacetate] | ≤ 1000 | 93% of control
5 | C=CC(=O)N1CC(CN2C(=O)C(CN3CC[C@@H](OC)C3)Oc3cc(-c4cc(O)cc5ccccc45)c(Cl)cc32)C1 (stereo partly drawn) [Example 28, 4-((1-acryloylazetidin-3-yl)methyl)-6-chloro-7-(3-hydroxynaphthalen-1-yl)-2-(((R)-3-methoxypyrrolidin-1-yl)methyl)-2H-benzo[b][1,4]oxazin-3(4H)-one] | ≤ 1000 | 93% of control
6 | C=CC(=O)N1CC(CN2C(=O)COc3cc(-c4onc5ccccc45)c(Cl)cc32)C1 [Example 29, 4-((1-acryloylazetidin-3-yl)methyl)-7-(benzo[c]isoxazol-3-yl)-6-chloro-2H-benzo[b][1,4]oxazin-3(4H)-one] | > 1000 | 25% of control
7 | C=CC(=O)N1CC(CN2C(=O)[C@H](CCN(C)C)Oc3cc(-c4cccc5ccccc45)c(Cl)cc32)C1 [Example 33, (S)-4-((1-acryloylazetidin-3-yl)methyl)-6-chloro-2-(2-(dimethylamino)ethyl)-7-(naphthalen-1-yl)-2H-benzo[b][1,4]oxazin-3(4H)-one] | > 1000 | 32% of control

The remaining lines, values ahead:

Row | IC50 (KRas G12C [1]) [nM] | POC (normalized percent of control, covalent modification of KRas G12C) (KRas G12C [2]) | SMILES
8 | ≤ 1000 | 91% of control | C=CC(=O)N1CC(CN2C(=O)[C@@H](CCN(C)C)Oc3cc(-c4cc(O)cc5ccccc45)c(Cl)cc32)C1 [Example 18, (R)-4-((1-acryloylazetidin-3-yl)methyl)-6-chloro-2-(2-(dimethylamino)ethyl)-7-(3-hydroxynaphthalen-1-yl)-2H-benzo[b][1,4]oxazin-3(4H)-one]
9 | > 1000 | 99% of control | C=CC(=O)N1CC(CN2C(=O)COc3cc(-c4cc(O)cc5ccccc45)c(C)cc32)C1 [Example 19, 4-((1-acryloylazetidin-3-yl)methyl)-7-(3-hydroxynaphthalen-1-yl)-6-methyl-2H-benzo[b][1,4]oxazin-3(4H)-one]
10 | > 1000 | 90% of control | C=CC(=O)N1CC(CN2C(=O)COc3cc(-c4cccc5ccccc45)c(Cl)cc32)C1 [Example 21, 4-((1-acryloylazetidin-3-yl)methyl)-6-chloro-7-(naphthalen-1-yl)-2H-benzo[b][1,4]oxazin-3(4H)-one]
11 | > 1000 | 34% of control | C=CC(=O)N1CC(C(C)N2C(=O)COc3cc(-c4cc(O)cc5ccccc45)c(Cl)cc32)C1 (centres unmarked) [Example 23, 4-(1-(1-acryloylazetidin-3-yl)ethyl)-6-chloro-7-(3-hydroxynaphthalen-1-yl)-2H-benzo[b][1,4]oxazin-3(4H)-one]
12 | ≤ 1000 | 90% of control | C=CC(=O)N1CC(CN2C(=O)[C@H](CCN(C)C)Oc3cc(-c4cc(O)cc5ccccc45)c(Cl)cc32)C1 [Example 26, (S)-4-((1-acryloylazetidin-3-yl)methyl)-6-chloro-2-(2-(dimethylamino)ethyl)-7-(3-hydroxynaphthalen-1-yl)-2H-benzo[b][1,4]oxazin-3(4H)-one]
13 | ≤ 1000 | 94% of control | C=CC(=O)N1CC(CN2C(=O)C(CN(C)C)Oc3cc(-c4cc(O)cc5ccccc45)c(Cl)cc32)C1 (centres unmarked) [Example 27, 4-((1-acryloylazetidin-3-yl)methyl)-6-chloro-2-((dimethylamino)methyl)-7-(3-hydroxynaphthalen-1-yl)-2H-benzo[b][1,4]oxazin-3(4H)-one]
14 | ≤ 1000 | 93% of control | C=CC(=O)N1CC(CN2C(=O)C(CN3CC[C@H](OC)C3)Oc3cc(-c4cc(O)cc5ccccc45)c(Cl)cc32)C1 (stereo partly drawn) [Example 30, 4-((1-acryloylazetidin-3-yl)methyl)-6-chloro-7-(3-hydroxynaphthalen-1-yl)-2-(((S)-3-methoxypyrrolidin-1-yl)methyl)-2H-benzo[b][1,4]oxazin-3(4H)-one]
15 | ≤ 1000 | 88% of control | C=CC(=O)N1CC(CN2C(=O)COc3cc(-c4cc(O)cc5ccccc45)c(Br)cc32)C1 [Example 31, 4-((1-acryloylazetidin-3-yl)methyl)-6-bromo-7-(3-hydroxynaphthalen-1-yl)-2H-benzo[b][1,4]oxazin-3(4H)-one]
16 | > 1000 | 81% of control | C=CC(=O)N1CC(CN2C(=O)COc3cc(-c4cc(O)cc5ccccc45)c(C#N)cc32)C1 [Example 32, 4-((1-acryloylazetidin-3-yl)methyl)-7-(3-hydroxynaphthalen-1-yl)-3-oxo-3,4-dihydro-2H-benzo[b][1,4]oxazine-6-carbonitrile]
